Laboratory results reported in ChEMBL document CHEMBL1132474, “Synthesis and biological evaluation of the first N-alkyl cage dimeric 4-aryl-1,4-dihydropyridines as novel nonpeptidic HIV-1 protease inhibitors” (J Med Chem, 1999).

Assays:
[1] = target: T1, Human immunodeficiency virus type 1 protease (Human immunodeficiency virus 1, UniProt Q72874); assay: Compound was evaluated for its binding affinity against HIV-1 protease
[2] = target: T1, Human immunodeficiency virus type 1 protease; assay: compound was evaluated for the inhibition of HIV-1 protease

| Compound | Ki [1] | IC50 [2] |
| --- | --- | --- |
| OC[C@]12C3N(Cc4ccccc4)C4[C@](CO)(C5N(Cc6ccccc6)C1[C@]3(CO)[C@H](c1ccccc1)[C@@]45CO)[C@H]2c1ccccc1 | 7.8 µM | 16.1 µM |
| COc1ccc([C@H]2[C@@]3(CO)C4N(Cc5ccccc5)C5[C@]2(CO)C2N(Cc6ccccc6)C3[C@]4(CO)[C@H](c3ccc(OC)cc3)[C@@]52CO)cc1 |  | 33 µM |
| OC[C@]12C3NC4[C@](CO)(C5NC1[C@]3(CO)[C@H](c1ccccc1)[C@@]45CO)[C@H]2c1ccccc1 |  | 227 µM |
| COc1ccc([C@H]2[C@]3(CO)C4NC5[C@@]2(CO)C2NC3[C@@]4(CO)[C@H](c3ccc(OC)cc3)[C@]52CO)cc1 |  | 209 µM |
| CN1C2[C@]3(CO)C4N(C)C5[C@@](CO)(C1[C@@]5(CO)[C@@H](c1ccccc1)[C@]24CO)[C@H]3c1ccccc1 |  | 262 µM |
| COc1ccc([C@H]2[C@]3(CO)C4N(C)C5[C@]2(CO)C2N(C)C3[C@]4(CO)[C@H](c3ccc(OC)cc3)[C@]52CO)cc1 |  | 195 µM |
